Data published in patent US11931569B2, “Method for changing blood brain barrier permeability” (TEL HASHOMER MEDICAL RESEARCH, INFRASTRUCTURE AND SERVICES …, priority 2018, dated 2024).

How the values were obtained:
[1] = tested on: in vitro BBB model (CD34+-derived ECs co-cultured with bovine brain pericytes on Transwell inserts); assay type: in vitro ADME, human
Procedure: Reference is made to FIG. 2A that schematically illustrates an in vitro BBB model 100 grown in Transwell inserts 200 (3401-Costar, Corning, USA). The in vitro human BBB model was generated as follows: CD34^+-derived ECs 250 were seeded onto matrigel-coated (BD Biosciences, USA) apical side 206 of a Transwell insert membrane 204. Primary bovine brain pericytes 252 were seeded on the gelatin-coated basolateral side 208 of the same Transwell inserts 2-24 h before the seeding of the ECs. […]
PEFs were applied to Transwell inserts 200 using an electroporator power supply (BTX 830; Harvard Apparatus, Holliston, MA). […] Given the parameters of the electrode and based on a finite elements model of the described system, the EF generated between the electrodes by the applied voltage can be approximated as uniform across the ECs monolayer and can be calculated by dividing the Voltage by the electrodes distance. […]
50 μl of a solution containing 0.5 mg/ml NaF in PBS was added to the luminal (apical) side of each Transwell insert 200 one minute prior to PEFs application. […] A sample of medium 102 collected from under basolateral side 208 was collected and the samples' fluorescence was measured using TECAN pro200 plate reader (485/538 nm excitation/emission). […]

CNS-1 glioma cell line = assay: efficacy of Paclitaxel across the in vitro BBB model after PEF application (glioma confluency); assay type: cell-based; conditions: 200 nM Paclitaxel on apical side, 2 h with insert, followed 3 days
Procedure: Reference is made to FIG. 5A. To study the effect of PEFs application on BBB permeability for Paclitaxel (Taxol®), the in vitro BBB model 100 as shown FIG. 2A was modified by seeding a CNS-1 glioma cell line 254 on a bottom surface 103 of cell culture well 101 (40,000 cells per well), into which the BLEC co-culture system grown on membrane 204 of Transwell insert 200 was also grown. When the glioma cell line was at about 16±0.5% confluency, 200 nM Paclitaxel was added into ECM media 102 in the apical side of Transwell insert 200 and PEFs were applied at one of various settings, then incubated for 2 hours after which time the Transwell insert was removed. […] Glioma cell line 254 was then further incubated for three days and the level of confluency was measured at 2 hours, 1 day, 2 days, and 3 days following Paclitaxel administration.
The results as shown by way of example in FIG. 5B indicate that low pulse-count, low frequency, low EF strength PEFs induce sufficient BBB disruption to allow a therapeutic dose of Paclitaxel to traverse the in vitro BBB model and reach the glioma cell line.

SMILES | increase in permeability [1] [%] | glioma cell growth / confluency (CNS-1 glioma cell line; 10 pulses, 74 V/cm, 1 Hz) | glioma cell growth / confluency (CNS-1 glioma cell line; 20 pulses, 30 V/cm, 1 Hz) | glioma cell growth / confluency (CNS-1 glioma cell line; 99 pulses, 30 V/cm, 1 Hz) | glioma cell growth / confluency (CNS-1 glioma cell line; control, no PEF application)
O=C([O-])c1ccccc1-c1c2ccc(=O)cc-2oc2cc([O-])ccc12.[Na+].[Na+] [NaF, sodium fluorescein] | 40±9 | – | – | – | –
CC(=O)O[C@H]1C(=O)[C@@]2(C)[C@H]([C@H](OC(=O)c3ccccc3)[C@]3(O)C[C@H](OC(=O)[C@H](O)[C@@H](NC(=O)c4ccccc4)c4ccccc4)C(C)=C1C3(C)C)[C@]1(OC(C)=O)CO[C@@H]1C[C@@H]2O [Paclitaxel] | – | substantially disrupt its growth | glioma growth was not significantly retarded | level of retardation of glioma growth was equivalent to application of 10 pulses of PEFs at a field strength of 74 V/cm | reach full confluency after 3 days
